One block for each compound: values may come before it.
Tests used:
[1] = tested on: dogs; assay: Electrophysiological variables (AERP, VERP, repolarization periods) in halothane-anesthetized dogs; format: in vivo, dog; conditions: 3 mg/kg
Method: Animals were obtained through Kitayama Labes Co., Ltd. (Nagano, Japan). All experiments were approved by the Toho University Animal Care and User Committee (No. 18-51-395) and performed according to the Guideline for the Care and Use of Laboratory Animals of Toho University.
The dogs were initially anesthetized with thiopental sodium (30 mg/kg, i.v.). After intubation with a cuffed endotracheal tube, anesthesia was maintained by inhalation of halothane (1% v/v) vaporized in oxygen with a volume-limited ventilator (SN-480-3; Shinano Manufacturing Co., Ltd., Tokyo, Japan). Tidal volume and respiratory rate were set at 20 mL/kg and 15 breaths/min, respectively. […] To prevent blood clotting, heparin calcium (100 IU/kg) was intravenously administered through a flush line of the catheter sheath placed at the right femoral vein.
The lead II electrocardiogram was obtained from the limb electrodes. The P-wave duration, PR interval, QRS width and QT interval were measured, and QT interval was corrected with Van de Water's formula: QTc=QT-0.087×(RR-1,000) with RR given in ms. The J-Tpeak and Tpeak-Tend were measured as follows. When the end of T-wave was obscure, we used the monophasic action potential (MAP) signal as a guide to estimate the end. The J-Tpeak was corrected for the heart rate with a coefficient as previously described (J-Tpeakc=J-Tpeak/RR^0.58 with RR given in seconds).
A standard 6-French, quad-polar electrodes catheter (Cordis-Webster Inc., Baldwin Park, Calif., USA) was positioned at the non-coronary cusp of the aortic valve through the left femoral artery to obtain the His bundle electrogram. Another 6-French, quad-polar electrode catheter (Cordis-Webster Inc.) was positioned at the sinus nodal areas of the right atrium through the right femoral vein to electrically pace and to record the local electrogram. A bi-directional steerable MAP recording/pacing combination catheter (1675P; EP Technologies, Inc., CA, USA) was positioned at the endocardium of the interventricular septum in the right ventricle through the left femoral vein to obtain MAP signals. The signals were amplified with a DC preamplifier (model 300; EP Technologies, Inc.). The duration of the MAP signals was measured as an interval, along a horizontal line corresponding to the diastolic baseline, from the MAP upstroke to the desired repolarization level. The interval (ms) at 90% repolarization was defined as MAP90.
The heart was electrically driven with a cardiac stimulator (SEC-3102; Nihon Kohden Co., Ltd.) via the pacing electrodes of the combination catheter placed in the right ventricle or the electrodes of the catheter placed at the right atrium. The stimulation pulses were rectangular in shape, 1-2 V (about twice the threshold voltage) and 1 ms duration. The MAP90 of the ventricle was measured during sinus rhythm (MAP90(sinus)) and at a pacing cycle length of 400 ms (MAP90(CL400)) and 300 ms (MAP90(CL300)). The atrial effective refractory period (AERP) and ventricular effective refractory period (VERP) were assessed with the programmed electrical stimulation. The pacing protocol consisted of 5 beats of basal stimuli in a cycle length of 400 ms followed by an extra stimulus of various coupling intervals. Starting in the late diastole, the coupling interval was shortened in 5-ms decrements until the additional stimulus could no longer elicit a response. The AERP and VERP were defined as the shortest coupling interval that could produce a response. The duration of the terminal repolarization period of the ventricle, reflecting phase-3 repolarization time of the action potential, was calculated by the difference between the MAP90(CL400) and VERP (terminal repolarization period=MAP90(CL400)−VERP) at the same site to estimate the extent of electrical vulnerability of the ventricular muscle.

[2] = tested on: H9c2 cells; assay: Reduction of intracellular ATP (Mitochondrial ToxGlo) in differentiated H9c2 cells; format: cell-based; conditions: 0-1 μM pre-treatment 2 h, then dronedarone
Method: (§1) H9c2 cell line was purchased from American Tissue Type Collection (ATCC) (Manassas, Va.). The cells were cultured in low-glucose DMEM growth media (Cat No: 31600, Thermo Fisher Scientific, Waltham, Mass.) supplemented with 1.5 g/L sodium bicarbonate, 25 mM HEPES, 10% fetal bovine serum (FBS) (GE Healthcare, Singapore), 100 units/mL penicillin, 100 μg/mL streptomycin and 250 ng/mL amphotericin B in 75-cm^2 tissue-culture flasks at 37° C. in a humidified atmosphere of 5% CO2. Cells were fed every 2-3 days and sub-cultured once 70-80% confluency was achieved to prevent the loss of differentiation potential. For differentiation, H9c2 cells were seeded at a density of 100,000 cells/well in 12-well plates. The cells were maintained for 1 day in low-glucose high-serum growth media to allow for cell attachment. Subsequently, cells were differentiated using 1 μM ATRA.
H9c2 cells were seeded in a white chimney plate and differentiated. The media was changed to DMEM with 10 mM galactose, 2 mM glutamine (6 mM final), 5 mM HEPES, 1 mM sodium pyruvate, 100 U/mL penicillin, 100 μg/mL streptomycin, 0.25 μg/mL amphotericin B, 1% FBS, 1× insulin-transferrin-selenium and 1 μM ATRA for 48 h to overcome the Crabtree effect. […] The cytotoxicity and intracellular ATP content were measured concurrently using Mitochondrial ToxGlo™ kit (Promega, Madison, Wis.) using manufacturer's protocol. Mitochondrial ToxGlo™ assay measures the cell viability using fluorogenic peptide bis-alanine-alanine-phenylalanine-R110 (bis-AAF-R110). Bis-AAF-R110 is a selective peptide that measures protease activity in dead cells since it is impermeable to live cells. Here, the fluorescence derived from metabolized bis-AAF-R110 was measured at different concentrations of the test compounds and compared to control. As the concentration of cytotoxic compound increases, the number of dead cells increases, leading to a higher fluorescence signal. ATP is measured by adding the ATP Detection Reagent, resulting in cell lysis and generation of a luminescent signal proportional to the amount of ATP present. […]

[3] = tested on: H9c2 cells; assay: Mitochondrial membrane potential (Δψm) dissipation, TMRM dye; format: cell-based; conditions: pre-treatment, then dronedarone at 5 μM
Method: as §1
Dissipation of Δψm by each test compound was measured using mitochondrial permeable dye, tetramethylrhodamine methyl ester perchlorate (TMRM) (Thermo Fisher Scientific, Waltham, Mass.). […] The media was aspirated, the cells were washed with PBS and fluorescence was measured at 557 nm excitation and 570 nm emission wavelengths. […] The media was aspirated and then the cells were treated with dronedarone and the dissipation of Δψm by AADs was measured as described.

[4] = tested on: hiPSC-CM; assay: Extracellular field potential duration (FPD), multi electrode array; format: cell-based, human; conditions: MEA, 0-10 μM
Method: Electrophysiological perturbations of hiPSC-CM were measured using multi electrode array (MEA) recording system (Multichannel Systems, Reutlingen, Germany). […] FPD measurements were normalized (corrected FPD [cFPD]) to the beating rate of the contracting areas with the Bazzet correction formula: cFPD=FPD/√(RR interval) as described previously^3. One-phase decay algorithm was used to plot corrected FPD curves.

[5] = target: T1, CYP2J2 (Homo sapiens, UniProt P51589); assay: Time- and concentration-dependent inactivation (MBI) of CYP2J2, rivaroxaban as probe substrate; format: biochemical; design: purchased BD Gentest (Woburn, Mass.)
T1 sequence (P51589 1-502): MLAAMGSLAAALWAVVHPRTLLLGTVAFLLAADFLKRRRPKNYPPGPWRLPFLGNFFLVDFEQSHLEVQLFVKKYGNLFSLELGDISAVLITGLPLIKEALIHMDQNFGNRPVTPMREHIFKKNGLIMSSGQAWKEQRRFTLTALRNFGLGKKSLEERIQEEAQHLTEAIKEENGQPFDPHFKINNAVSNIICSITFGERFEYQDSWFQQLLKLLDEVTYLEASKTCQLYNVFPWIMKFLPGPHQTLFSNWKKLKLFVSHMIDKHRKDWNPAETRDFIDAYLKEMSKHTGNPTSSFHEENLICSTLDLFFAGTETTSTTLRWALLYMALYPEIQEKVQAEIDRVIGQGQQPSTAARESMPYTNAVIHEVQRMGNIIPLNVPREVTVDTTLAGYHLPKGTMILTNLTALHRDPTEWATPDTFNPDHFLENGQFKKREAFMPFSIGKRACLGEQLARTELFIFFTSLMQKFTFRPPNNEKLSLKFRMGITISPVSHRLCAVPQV
Method: Incubations were conducted in triplicates in 96-well plates. Primary incubation mixtures comprising various concentrations of inhibitor (0-20 μM) were pre-incubated at 37° C. for 3 min with CYP450 enzymes (20 pmol/m L) and NADPH B in potassium phosphate buffer (100 mM, pH 7.4). To initiate the enzymatic reaction, 5 μL NADPH A was added to the primary incubation. The final primary incubation mixture volume was 100 μL and contained <1% v/v organic solvent. At different pre-incubation time points (3, 8, 15, 22, 30, and 45 min) after the addition of NADPH A, 5 μL aliquots of the primary incubation were transferred to 95 μL of the secondary incubation containing 50 μM rivaroxaban, the NADPH A and B, and potassium phosphate buffer (100 mM, pH 7.4) to yield a 20-fold dilution. The secondary incubation mixtures were incubated at 37° C. for 30 min with CYP2J2, before 80 μL aliquots were removed and quenched with an equal volume of ice-cold ACN containing 4 μM dexamethasone as IS. The samples were then centrifuged at 3220 g at 4° C. for 30 min before transferring the supernatant to a 96-well plate for liquid chromatography-tandem mass spectrometry (LC-MS/MS) analysis. The main rivaroxaban metabolite, morpholinone hydroxylated metabolite, was quantified using LC-MS/MS analysis.
The mean of triplicate peak area ratios for each concentration and pre-incubation time was normalized to that of 0 μM with the same pre-incubation time. The amount of rivaroxaban metabolite formed during the secondary incubation, a measure of the probe substrate activity remaining, was computed and the natural logarithm of this measure was plotted against inactivation pre-incubation time for each inactivator concentration. […]
In equation 1, kinact=maximum inactivation rate constant at infinite inactivator concentration (in min^−1); KI=concentration of inactivator at the half-maximal rate constant of inactivation (in μM); [I]=in vitro inactivator concentration (in μM). MBI potency (kinact/KI ratio, μM-1·min-1) against human recombinant CYP2J2 is determined for each compound. […]

[6] = tested on: CYP2J2
Method: The human ES cell line (H7 ESCs) with a knocked in, constitutively expressed Genetically Encoded Calcium Indicator (GECI) GCaMP6s was maintained on matrigel coated plates in StemMACS™ iPS-Brew XF (Miltenyi Biotec) and passaged in clumps using Collagenase IV (1 mg/mL) enzymatic treatment. For differentiation, ESCs were passaged in single cells using Accutase (Nacalai Tesque), and subjected to the previously established small molecule based GiWi cardiomyocyte differentiation protocol. At Day 7, the media was replaced with RPMI1640 (HyClone) supplemented with B27 with insulin (B27+) (Miltenyi Biotec) for maturation and refreshed every 2 days. […] The cardiomyocytes (H7 CMs) were used for siRNA transfections on day 28. […]
RNA samples (250 ng) were reverse transcribed to obtain cDNA using High-Capacity cDNA Reverse Transcription Kit (Applied Biosystems, U.S.A.). qPCR was performed using the FAST SYBR Green Mix (Applied Biosystems, U.S.A.) on 5 ng of cDNA. ΔΔCT-based relative quantification method was adopted for qPCR analysis using the QuantStudio 5 384-well Block Real-Time PCR system (Applied Biosystems, U.S.A.). The threshold cycle was determined to be Data is presented as fold-change where CT values were normalised to β-ACT/N. Data presented are representative of two independent experiments with error bars indicative of the standard deviation (SD) unless otherwise stated.

Compound: CCCCCC1OC1C/C=C\C/C=C\C/C=C\CCCC(=O)O (stereo not shown) [14,15-EET]
- effect of pre-treatment on dronedarone-induced decrease in intracellular ATP [2]: mitigated the decrease in intracellular ATP levels in a concentration-dependent manner
- effect of pre-treatment on dronedarone-induced Δψm dissipation [3]: concentration-dependent mitigation of Δψm dissipation

Compound: Cl.[2H]c1c([2H])c(C(=O)c2c(CCCC)oc3ccc(NS(C)(=O)=O)cc23)c([2H])c([2H])c1OCCCN(CCCC)CCCC [Compound 2]
- inactivation (MBI) of CYP2J2, in words [5]: inactivated CYP2J2 in a time- and concentration-dependent manner

Compound: siRNA1: Accell self-delivery siRNA against CYP2J2, CUCAGGUGUAAUAUUGUUA, SEQ ID NO: 1 (Accell self-delivery modifications, pattern not given here)
- knockdown of CYP2J2, in words [6]: most effective

Second part, led by results:

- ΔJ-Tpeakc (early repolarization period) ([1]; 10 min after administration): +35
- ΔTRP (terminal repolarization period) ([1]; 10 min after administration): −1
- ΔTpeak-Tend (late repolarization period) ([1]; 10 min after administration): +17
Compound: CC(C)NCC(O)c1ccc(NS(C)(=O)=O)cc1 (racemic) [dl-sotalol]
- Atrial selectivity (ΔAERP/ΔVERP) ([1]; 20 min after administration): 1.1
- ΔAERP ([1]; 20 min after administration): +60
- ΔVERP ([1]; 20 min after administration): +53
- Atrial selectivity (ΔAERP/ΔVERP) ([1]; 30 min after administration): 1.0
- ΔAERP ([1]; 30 min after administration): +56
- ΔVERP ([1]; 30 min after administration): +54

- ΔJ-Tpeakc (early repolarization period) ([1]; 15 min after administration): −10
- ΔTRP (terminal repolarization period) ([1]; 15 min after administration): −11
- ΔTpeak-Tend (late repolarization period) ([1]; 15 min after administration): +18
Compound: CCCCc1oc2ccccc2c1C(=O)c1cc(I)c(OCCN(CC)CC)c(I)c1 [Amiodarone]
- ΔAERP ([1]; 60 min after administration): +29
- ΔVERP ([1]; 60 min after administration): +18
- effect on extracellular field potential duration (FPD) [4]: Dose-dependent increase in the FPD

- ΔJ-Tpeakc (early repolarization period) ([1]; 20 min after administration): +31
- ΔTRP (terminal repolarization period) ([1]; 20 min after administration): +4
- ΔTpeak-Tend (late repolarization period) ([1]; 20 min after administration): +14
Compound: CC(C)COCC(CN(Cc1ccccc1)c1ccccc1)N1CCCC1 (stereo not shown) [bepridil]
- Atrial selectivity (ΔAERP/ΔVERP) ([1]; 10 min after administration): 3.0
- ΔAERP ([1]; 10 min after administration): +53
- ΔVERP ([1]; 10 min after administration): +55

— US20220267288A1, “CARDIAC THERAPEUTIC” (priority 2019, published 2022)
